The nature of this data set: Solubility measurement in toluene. The class given is physicochemical. The settings on record: 60° C. Here is the method: Example 1: Solubility Measurement
In Table 2, solubility (g/L) in toluene at 60° C. is listed.

In brackets after ≈: the same amount, converted by molar mass.

Results on six molecules are retold here after patent US9796727B2, “Field effect transistor” (Nippon Kayaku Kabushiki Kaisha, priority 2009, dated 2017).

In the case of `CCCCCCCCc1ccc2cc3c(cc2c1)sc1c2cc4ccc(CCCCCCCC)cc4cc2sc31` [Compound No. 10, 6,6′-dioctyldinaphtho[2,3-b:2′,3′-f]thieno[3,2-b]thiophen], the solubility in toluene amounted to 60 µg/mL (≈ 106 µM).
The figure for `CCCCCCCCCCc1ccc2cc3c(cc2c1)sc1c2cc4ccc(CCCCCCCCCC)cc4cc2sc31` [Compound No. 12, 6,6′-Didecyldinaphtho[2,3-b:2′,3′-f]thieno[3,2-b]thiophen] is 50 µg/mL (≈ 80.5 µM); for `CCCCCCCCCCCCc1ccc2cc3c(cc2c1)sc1c2cc4ccc(CCCCCCCCCCCC)cc4cc2sc31` [Compound No. 14, 6,6′-Didodecyldinaphtho[2,3-b:2′,3′-f]thieno[3,2-b]thiophen] it is 40 µg/mL (≈ 59.1 µM); for `CCCCCCc1ccc2cc3c(cc2c1)sc1c2cc4ccc(CCCCCC)cc4cc2sc31` [compound 6, 6,6′-Dihexyldinaphtho[2,3-b:2′,3′-f]thieno[3,2-b]thiophen] it is 80 µg/mL (≈ 157 µM).
The figure for `c1ccc2cc3c(cc2c1)sc1c2cc4ccccc4cc2sc31` [ref. 1, dinaphtho[2,3-b:2′,3′-f]thieno[3,2-b]thiophene, reference compound] is at most 10 µg/mL; for `CCCCc1ccc2cc3c(cc2c1)sc1c2cc4ccc(CCCC)cc4cc2sc31` [ref. 2, 6,6′-Dibutyldinaphtho[2,3-b:2′,3′-f]thieno[3,2-b]thiophen, reference compound] it is 20 µg/mL (≈ 44.2 µM).
